Source: patent US7531320B2, “Modulation of β-catenin/TCF-activated transcription” (priority 2003, dated 2009)

What was measured:
hnkd = experiment: Real Time RT-PCR in SW480 cells, hnkd; format: cell-based, human; conditions: 25 μM; for ΔCT hnkd: relative to β-actin
Method: The RNeasy Midi Kit (Qiagen) was used for RNA extraction and Real Time RT-PCR was performed according to the protocol provided with the SYBR Green PCR Master Mix Kit (Perkin Elmer Biosystems, Shelton, Conn.). The primers used for cyclin D1, axin2, hnkd, c-myc, c-jun, and fra-1 amplifications were: cyclin D1 forward primer:5′-[…]-CCTGCTG-3′ (SEQ ID NO: 32) reverse primer: 5′-[…]-3′ (SEQ ID NO: 33) leading to a product size of approximately 300 bp; axin2 forward primer: 5′-[…] GGAAA-CT-3′ (SEQ ID NO: 34) and reverse primer: 5′-[…]-GAGA-3′ (SEQ ID NO: 35); hnkd forward primer: 5′-[…] TTGCGT-3′ (SEQ ID NO: 36) and the reverse primer: 5′-[…] ACGT-3′ (SEQ ID NO: 37); c-myc forward primer: 5′-GAA-[…] CTGC-3′ (SEQ ID NO: 38) and reverse primer: 5′-[…]-G-3′ (SEQ ID NO: 39); c-jun forward primer: 5′-[…]-3′ (SEQ ID NO: 40) and reverse primer: 5′-[…]-3′ (SEQ ID NO: 41); fra-1 forward primer: 5′-ACC-[…]-[…]-3′ (SEQ ID NO: 42) and reverse primer: 5′-[…]-TT-3′ (SEQ ID NO: 43). β-actin was used for normalization. […]
1 μg of mRNA, for each time point, was subjected to Real Time RT-PCR. Expression level of endogenous cyclin D1, c-myc, fibronectin, hnkd, axin2, c-jun, and BMP-4 were measured relative to β-actin. Quantitation of The ΔCycle of Threshold (CT) values was determined by subtracting the average values of each set by the corresponding average values obtained for β-actin. […]
The cyclin D1 gene is inappropriately expressed in many different tumor types, and is known to be a direct target of the Wnt/β-catenin pathway (Shtutman et al., “The cyclin D1 gene is a target of the beta-catenin/LEF-1 pathway,” Proc. Natl. Acad. Sci. USA 96:5522-27 (1999); Tetsu et al., “Beta-catenin regulates expression of cyclin D1 in colon carcinoma cells,” Nature 398:422-26 (1999)). […] Expression level of endogenous cyclin D1, c-myc, fibronectin, hnkd, axin2, c-jun, and BMP-4 were measured relative to β-actin. Quantitation of The ΔCycle of Threshold (CT) values was determined by subtracting the average values of each set by the corresponding average values obtained for β-actin. […]

NFAT reporter construct = experiment: NFAT reporter assay in stably transfected Jurkat cells; format: cell-based
Method: FIG. 1. COMPOUND 1 inhibits β-catenin/TCF transcription. • A(i) and A(ii). Structures of COMPOUND 1, COMPOUND 2, COMPOUND 3, COMPOUND 4, and COMPOUND 5. • B(i) and B(ii). […] SW480 cells (10^5), (FIG. 1B(i)), were transfected with β-catenin/TCF luciferase construct. Cells were treated with COMPOUND 1 (1-64 μM). 24 hours post treatment lysates were prepared and subjected to dual luciferase assay. The data is represented in different form in FIG. 1B(ii). • C. COMPOUND 1 has no effect on NFAT reporter construct. Stably transfected Jurkat cells, right panel, with an NFAT reporter construct, were stimulated with PMA (10 ng/ml)/lonomycin (1 μg/ml), and treated with COMPOUND 1 (0.781-50 μM). 24 hours post treatment lysates were prepared and subjected to dual luciferase assay. All experiments were performed in duplicate and the values plotted as means +/−standard deviation. • D. CBP is the molecular target of COMPOUND 1. Nuclear extracts of SW480 cells were incubated with streptavidin-agarose beads coated with COMPOUND 2 (25 μM). Beads were washed 3 times and the eluted were subjected to gel electrophoresis and immunoblotting, with anti-CBP antibodies. […] The lysates were desalted using G-25 1 cc columns (Pharmacia) to remove the unbound ^14C-labeled-COMPOUND 1, and ^14C-labeled-COMPOUND 1 incorporation was measured.

SMILES: O=C1C(Cc2ccc(O)cc2)N2C(=O)CCN(C(=O)NCc3ccccc3)C2CN1Cc1cccc2ccccc12 (centres unmarked) [COMPOUND 1]
- mRNA hnkd (direction) (hnkd): ↓
- ΔCT hnkd (hnkd; 4 hours): 0.3
- ΔCT hnkd (hnkd; 8 hours): 1.0
- Effect on NFAT reporter construct (NFAT reporter construct; Jurkat cells, PMA/Ionomycin stimulated, 0.781-50 μM, 24 hours): no effect
- Selectivity versus other CBP-dependent reporters (NFAT reporter construct; including NFAT, CRE and AP-1 (CRE, AP-1 data not shown)): very good selectivity
